Laboratory results taken from patent publication US20230173059A1, “TOLL-LIKE RECEPTOR (TLR) AGONIST NANOPARTICLES AND USES THEREOF” (The Board of Trustees of the Leland Stanford Junior …, priority 2020, published 2023).
“And” between values parts separate entries of the source, which are not always exact repeats. Equal entries are not always repeated.

B1: ovalbumin (protein, UniProt P01012 2-386, looked up)
Ovalbumin: GSIGAASMEFCFDVFKELKVHHANENIFYCPIAIMSALAMVYLGAKDSTRTQINKVVRFDKLPGFGDSIEAQCGTSVNVHSSLRDILNQITKPNDVYSFSLASRLYAEERYPILPEYLQCVKELYRGGLEPINFQTAADQARELINSWVESQTNGIIRNVLQPSSVDSQTAMVLVNAIVFKGLWEKAFKDEDTQAMPFRVTEQESKPVQMMYQIGLFRVASMASEKMKILELPFASGTMSMLVLLPDEVSGLEQLESIINFEKLTEWTSSNVMEERKIKVYLPRMKMEEKYNLTSVLMAMGITDVFSSSANLSGISSAESLKISQAVHAAHAEINEAGREVVGSAEAGVDAASVSEEFRADHPFLFCIKHIATNAVLFFGRCVSP
notes: model antigen protein, MW=43 kDa

Columns and labels:
SARS-CoV-2 spike protein = conditions: in vivo, sc
TLR9 = molecular target: T1, TLR9 (Mus musculus, UniProt Q9EQU3); experiment: In vitro Raw-Blue reporter assay (CpG); format: cell-based; conditions: 100,000 Raw-Blue cells, 21 h, CpG-C 3.1-29 μg/mL, absorbance 655 nm
T1 construct: host or cells: Raw-Blue (NF-kB-SEAP) mouse macrophage reporter cells
T1 sequence (Q9EQU3 26-1032): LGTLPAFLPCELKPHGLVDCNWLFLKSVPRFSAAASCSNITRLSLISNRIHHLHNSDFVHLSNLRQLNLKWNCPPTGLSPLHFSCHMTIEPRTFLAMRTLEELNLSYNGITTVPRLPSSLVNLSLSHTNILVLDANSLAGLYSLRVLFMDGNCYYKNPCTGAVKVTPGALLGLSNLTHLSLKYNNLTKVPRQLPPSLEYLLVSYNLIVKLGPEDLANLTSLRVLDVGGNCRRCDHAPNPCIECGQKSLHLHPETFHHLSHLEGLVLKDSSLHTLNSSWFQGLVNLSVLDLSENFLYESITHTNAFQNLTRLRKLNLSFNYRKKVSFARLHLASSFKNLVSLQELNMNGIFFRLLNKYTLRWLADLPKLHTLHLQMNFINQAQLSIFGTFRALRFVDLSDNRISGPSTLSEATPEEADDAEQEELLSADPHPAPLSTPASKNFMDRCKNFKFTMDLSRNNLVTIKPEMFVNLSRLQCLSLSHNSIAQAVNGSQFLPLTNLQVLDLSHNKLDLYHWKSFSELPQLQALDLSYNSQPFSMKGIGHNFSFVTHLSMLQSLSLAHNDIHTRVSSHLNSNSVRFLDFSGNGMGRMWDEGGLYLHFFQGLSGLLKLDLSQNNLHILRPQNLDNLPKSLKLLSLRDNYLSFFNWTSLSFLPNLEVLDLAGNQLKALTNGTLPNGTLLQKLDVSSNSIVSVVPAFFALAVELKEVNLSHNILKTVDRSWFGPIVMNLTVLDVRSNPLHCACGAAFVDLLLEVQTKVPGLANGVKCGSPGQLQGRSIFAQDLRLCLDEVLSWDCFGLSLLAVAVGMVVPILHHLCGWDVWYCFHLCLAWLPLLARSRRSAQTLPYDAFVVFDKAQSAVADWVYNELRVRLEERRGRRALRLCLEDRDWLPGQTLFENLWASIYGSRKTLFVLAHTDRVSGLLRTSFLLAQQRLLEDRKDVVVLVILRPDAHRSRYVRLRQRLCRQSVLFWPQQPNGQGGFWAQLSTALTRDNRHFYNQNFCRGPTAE
Description: In vitro Raw-Blue reporter assay. The Raw-Blue (NF-kB-SEAP) reporter cell line (Invivogen, raw-sp) was used to evaluate the valency effect of TLR9 agonist conjugated to PEG-PLA NPs. The cells were cultured at 37° C. with 5% CO2 in DMEM supplemented with L-glutamine (2 mM), D-glucose (4.5 g/L), 10% HI-FBS, and penicillin (100 U/mL)/streptonmcin (100 μg). Every other passage, zeocin (100 μg/mL) was added to the culture medium. Serial dilutions of soluble CpG-B and CpG-C and of the different CpG-B and CpG-C NPs formulations were added to a 96-well tissue culture treated plate to achieve final concentrations between 30 and 3.1 μg/mL of TLR9 agonist. Non-conjugated PEG-PLA NPs were used as a negative control. […] Manufacturer instructions were followed for SEAP quantification, and absorbance levels detected at 655 nm after 3 h incubation with QUANTI-Blue Solution (Invivogen). […]
In these assays, Raw-Blue cells were incubated for 21 h with either the free form, or the NPs tethered form (10%, 20%, 30%, 50%) of CpG-C at a range of CpG concentrations (3.1-29 μg/mL) in order to generate concentration dependent activation curves (FIG. 38B). […] To ensure a correct and consistent dosing of CpG NPs throughout different experiments, we constructed a standard curve for both classes of CpG-NPs (FIGS. 40A, 40B) by measuring the absorbance of different concentration of CpG at 280 nm. […]

[1] = Cargo and polymer diffusivity (FRAP, Stokes-Einstein, MSDM); format: physicochemical; conditions: for Diffusivity in 1:5 gel / Diffusivity in 2:10 gel: FRAP; for Diffusivity in PBS: calculated with Stokes-Einstein from RH
Description: To characterize the dynamics of vaccine exposure expected from the vaccine-loaded gels, we assessed the diffusivities of both vaccine cargo in each of the two gel formulations of interest using fluorescence recovery after photobleaching (FRAP) experiments (FIG. 9F. FIG. 16). The PNP gels are unique compared to traditional covalently cross-linked gels as their bonds are dynamic and continuously rearrange^28. This feature results in self-diffusion of the polymer network over time within the intact hydrogel^40,41. OVA's hydrodynamic radius (RH) in PBS is reported in the literature to be 3.2 nm^42, corresponding to a diffusivity value, D, of 76.6 μm^2/s. Using multi-angle light scattering (MALS) we measured Poly(I:C)'s hydrodynamic radius to be much larger, with an RH of 34.2 nm, corresponding to a D value of 7.2 μm^2/s. This difference in hydrodynamic size results in OVA having more than a 10-fold greater diffusivity than Poly(I:C) in PBS (FIG. 9G) and a 100-fold difference in a typical covalently cross-linked hydrogel (FIG. 17). […] The measured diffusivities for all experiments can be found in Table 6.
FRAP Analysis: Alexa Fluor 647 conjugated OVA (Thermo Fisher Scientific), rhodamine conjugated Poly(I:C) (Invivogen), and rhodamine conjugated HPMC-C12 were used to visualize the diffusion of the cargo and gel. Samples were photobleached with a 50 μm diameter for the region of interest (ROI). Different tests (n=5) were made for 3 different samples from the same batch at different locations of the sample. A spot was bleached with a pixel dwell time of 177.32 μs. 500 post-bleach frames were recorded at 1 frame/s to form the recovery exponential curve. The diffusion coefficient was calculated as^52:
Where the constant γD=τ1/2τD, with τ1/2 being the half-time of the recovery. τD the characteristic diffusion time, both yielded by the ZEN software, and ω the radius of the bleached ROI (25 μm).
The diffusivity of cargo in PBS was calculated using the Stokes-Einstein Law Equation for diffusion^53 where kB is Boltzmann's constant, T is temperature in Kelvin, η is solvent viscosity, and R is solute hydrodynamic radius
The diffusivity of cargo in a model covalent PEG gel was calculated using the Multiscale Diffusion Model (MSDM) assuming 25° C., 5% volume fraction, and 35 nm mesh size^54.
FRAP Analysis: Alexa Fluor 647 conjugated OVA (Thermo Fisher Scientific), rhodamine conjugated Poly(I:C) (Invivogen), and rhodamine conjugated HPMC-C12 were used to visualize the diffusion of the cargo and gel. The samples were placed in a sterile 0.18 mm thick glass bottom dish (Ibidi). An Inverted Zeiss LSM 780 Laser Scanning Confocal Microscope (Germany) using a Plan-Apochromat 20×/0.8 M27 objective lens was used for FRAP measurements. To excite the fluorescent Alexa Fluor 647, a 5 mW 633 nm He—Ne laser was employed at 2%, and the emitted fluorescence was detected by Alexa Fluor 647 specific band pass filter (638-756 nm). To excite the fluorescent rhodamine, a 20 mW 561 nm diode pumped solid state laser was used at 2%, and the emitted fluorescence was detected by rhodamine specific band pass filter (415-638 nm). We used pixel dwell time 2.55 μs which took 390.98 ms to finish every scan. Samples were photobleached with a 405 nm diode laser, plus the 633 nm laser in the case of the Alexa Fluor, and a 514 nm argon laser and the 561 nm laser in the case of the rhodamine. All lasers were set al 100% intensity for the bleaching, with a 20-40 μm diameter for the region of interest (ROI). To avoid any extra noise, the high voltage was limited to be 700 V. Different tests (n=5) were made for 3 different samples from the same batch at different locations of the sample. For each test, 10 control pre-bleach images were captured at 1 frame/s. A spot was bleached with a pixel dwell time of 177.32 μs. 500 post-bleach frames were recorded at 1 frame/s to form the recovery exponential curve. The pixel size was set to be 1.66 μm. The diffusion coefficient was calculated as^62: […]

[2] = reported in the literature; cited from earlier work

Row | Molecule | anti-spike total IgG endpoint titers (SARS-CoV-2 spike protein) | log EC50 (TLR9) | Diffusivity in 1:5 gel [1] | Diffusivity in 2:10 gel [1] | Diffusivity in PBS [1] [μm^2/s] | hydrodynamic radius (RH) ([1]; multi-angle light scattering (MALS)) [nm] | hydrodynamic radius (RH) in PBS [2] [nm]
1 | CpG-B 1826 [soluble CpG-B] | stronger response than the CpG-B NP |  |  |  |  |  | 
2 | CpG-C 2395 (DNA TCGTCGTTTTCGGCGCGCGCCG; chemistry not given here) [free CpG-C] |  | 1.15 log10(μg/mL) |  |  |  |  | 
3 | Poly(I:C) |  |  | 1.7 ± 0.3 μm^2/s | 2.4 ± 0.1 μm^2/s | 7.2 | 34.2 | 
4 | B1 |  |  | 5.76 μm^2/s and 6 ± 1 μm^2/s | 3.2 μm^2/s and 3.2 ± 0.6 μm^2/s | 76.6 |  | 3.2
